Experimental data: patent US7928060B2, “Amylin family polypeptide-6 (AFP-6) analogs and methods of making and using them” (Amylin Pharmaceuticals, Inc., priority 2004, dated 2011)
Like-named read-outs stand apart in the source and are kept apart here.

Assays:
amylin receptors = target: T1, amylin receptors (Rattus norvegicus, UniProt P32214); test: amylin radioligand binding assay (125I-rat amylin, nucleus accumbens membranes); details: FIG. 10
T1 construct: This basal forebrain tissue, containing the nucleus accumbens and surrounding regions, was weighed and homogenized; from tissue; host or cells: rat basal forebrain (nucleus accumbens) membranes, male Sprague-Dawley rats
T1 sequence (P32214 25-516): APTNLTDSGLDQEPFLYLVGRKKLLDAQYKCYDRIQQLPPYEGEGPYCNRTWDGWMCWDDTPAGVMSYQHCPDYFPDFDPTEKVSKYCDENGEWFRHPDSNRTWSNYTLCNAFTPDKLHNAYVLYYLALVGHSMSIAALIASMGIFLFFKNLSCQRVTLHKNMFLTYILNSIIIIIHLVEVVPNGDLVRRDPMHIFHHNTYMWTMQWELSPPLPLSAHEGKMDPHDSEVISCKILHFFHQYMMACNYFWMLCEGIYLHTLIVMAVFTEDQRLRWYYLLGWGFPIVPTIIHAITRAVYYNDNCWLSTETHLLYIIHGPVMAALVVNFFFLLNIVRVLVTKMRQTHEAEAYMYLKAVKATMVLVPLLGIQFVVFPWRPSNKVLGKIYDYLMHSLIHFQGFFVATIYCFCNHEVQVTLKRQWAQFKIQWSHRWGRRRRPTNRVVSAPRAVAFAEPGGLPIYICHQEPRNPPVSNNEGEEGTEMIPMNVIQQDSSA
Summary of the method: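 Membranes from male Sprague-Dawley rat brain region rostral to hypothalamus, washed and resuspended in 20 mM HEPES with 0.2 mM PMSF. Incubation 60 min at 2 C, then filtration with cold PBS washes.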

CGRP receptors = target: T2, CGRP receptors (Homo sapiens, UniProt O60894+Q16602); test: CGRP radioligand binding assay (125I-hCGRP, SK-N-MC cell membranes); details: FIG. 11
T2 construct: membranes prepared from SK-N-MC cells, known to express CGRP receptors; endogenous in cells; host or cells: SK-N-MC cell membranes

calcitonin receptor [1] = test: cAMP production in CHO cells (AlphaScreen); type: cell-based; details: for EC50: CHO, 30,000 cells/well
[2] = plasma ionized calcium in rats; type: in vivo, rat; details: subcutaneous, samples of Example 4
Procedure: Using the samples obtained from Example 4, ionized calcium was measured in plasma samples obtained from gastric emptying experiments described above, using an ion selective electrode, Ciba/Corning 634 Ca/pH analyzer (Ciba/Corning, Inc., Medfield, Mass.).

rats = test: telemetry of cardiovascular parameters in conscious rats; type: in vivo, rat; details: 10 nmol/kg intravenous
Text: Telemetry allows for real-time hemodynamic readings including arterial pressure, heart rate, arterial dP/dt, ECG (with waveform intervals) and core temperature via an implanted radio transmitter in conscious, non-anesthetized, unrestrained rats. […] Remote intravenous dosing is achieved through in-dwelling vascular access ports.

Sprague-Dawley rats = test: 1-week continuous subcutaneous infusion in high fat-fed rats: food intake and body weight; type: in vivo, rat; details: 75 nmol/kg/day
Text: Individually housed male Sprague-Dawley® rats (beginning weight=310 g; 12-h light/dark cycle) were maintained on a high fat (HF) diet (Research Diet 58% kcal from fat). Rats were fattened for 34 days. At the end of the fattening period, 7-day osmotic pumps (Durect Corp.) were implanted interscapularly under anesthesia (body weight at time of implant=403 g). The rats received pumps delivering compound or vehicle (50% DMSO). The following compounds were examined at a 75 nmol/kg/day dose: AFP-6, and an AFP-6 analog SEQ ID NO:32. Food intake and body weight measurements were obtained on day 2 and day 7. Group differences were analyzed using analysis of variance (ANOVA) and Fisher's Least-Significant Difference test.

adrenomedullin receptor [3] = details: bovine studies; cited from earlier work
calcitonin receptor [4] = target: T3, calcitonin receptor (Homo sapiens, UniProt P30988); test: cAMP production in T47D cells (AlphaScreen)
T3 sequence (P30988 25-474): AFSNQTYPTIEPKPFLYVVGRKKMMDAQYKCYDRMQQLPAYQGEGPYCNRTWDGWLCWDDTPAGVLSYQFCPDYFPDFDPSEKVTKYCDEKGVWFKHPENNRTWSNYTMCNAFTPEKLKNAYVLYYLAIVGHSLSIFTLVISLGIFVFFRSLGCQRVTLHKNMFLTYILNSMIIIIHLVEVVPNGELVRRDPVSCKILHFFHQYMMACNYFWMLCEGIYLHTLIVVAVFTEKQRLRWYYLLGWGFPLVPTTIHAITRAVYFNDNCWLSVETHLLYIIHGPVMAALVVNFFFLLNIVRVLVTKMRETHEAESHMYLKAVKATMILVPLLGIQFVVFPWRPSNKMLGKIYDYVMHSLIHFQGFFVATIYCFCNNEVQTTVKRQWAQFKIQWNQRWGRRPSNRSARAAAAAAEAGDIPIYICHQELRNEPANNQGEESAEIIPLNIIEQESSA
Text: Data from three exemplary independent alpha screen assays are summarized with EC50 values calculated in PRISM.

adrenomedullin receptor [5] = target: adrenomedullin receptor (Homo sapiens, UniProt O60895+Q16602); test: cAMP production in HUVECs (AlphaScreen); type: cell-based; parameters: tested for bioactivity in HUVECs that contain the adrenomedullin receptor; endogenous in cells; host or cells: HUVEC
Chain of adrenomedullin receptor (Homo sapiens, UniProt O60895+Q16602) (Q16602 23-461): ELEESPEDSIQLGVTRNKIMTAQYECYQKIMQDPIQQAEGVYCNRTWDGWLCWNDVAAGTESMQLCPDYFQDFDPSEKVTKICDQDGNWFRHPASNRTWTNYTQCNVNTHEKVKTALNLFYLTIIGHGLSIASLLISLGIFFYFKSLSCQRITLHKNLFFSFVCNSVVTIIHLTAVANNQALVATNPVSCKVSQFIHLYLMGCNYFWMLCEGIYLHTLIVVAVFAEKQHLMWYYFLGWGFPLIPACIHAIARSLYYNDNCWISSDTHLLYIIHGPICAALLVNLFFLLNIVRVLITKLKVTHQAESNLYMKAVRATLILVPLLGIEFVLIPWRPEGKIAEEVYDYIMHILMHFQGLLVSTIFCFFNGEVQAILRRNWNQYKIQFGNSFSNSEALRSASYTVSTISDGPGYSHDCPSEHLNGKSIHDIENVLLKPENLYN
Chain of adrenomedullin receptor (Homo sapiens, UniProt O60895+Q16602) (O60895 43-175): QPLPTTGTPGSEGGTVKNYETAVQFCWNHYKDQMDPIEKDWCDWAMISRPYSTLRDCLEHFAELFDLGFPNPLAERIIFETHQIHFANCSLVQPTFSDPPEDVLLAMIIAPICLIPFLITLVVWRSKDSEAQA

T2 sequence (Q16602 23-461): as the sequence (Q16602 23-461) above
T2 sequence (O60894 27-148): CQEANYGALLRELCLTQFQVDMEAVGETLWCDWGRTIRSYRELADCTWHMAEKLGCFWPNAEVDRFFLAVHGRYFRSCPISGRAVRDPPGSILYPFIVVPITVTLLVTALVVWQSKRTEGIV

CSCC[C@H](NC(=O)[C@H](CC(C)C)NC(=O)[C@H](CCC(N)=O)NC(=O)[C@H](Cc1c[nH]c2ccccc12)NC(=O)[C@H](CC(C)C)NC(=O)[C@H](CCCNC(=N)N)NC(=O)[C@H](Cc1c[nH]cn1)NC(=O)[C@H](CO)NC(=O)[C@H](CC(C)C)NC(=O)[C@H](CC(N)=O)NC(=O)[C@H](CCC(N)=O)NC(=O)[C@@H](NC(=O)[C@H](CCC(N)=O)NC(=O)[C@@H]1CSSC[C@H](NC(=O)CNC(=O)[C@@H](NC(=O)[C@H](CCCNC(=N)N)NC(=O)[C@H](CC(C)C)NC(=O)[C@H](CC(C)C)NC(=O)[C@H](CCC(N)=O)NC(=O)[C@H](C)NC(=O)[C@H](CCC(N)=O)NC(=O)[C@@H](N)[C@@H](C)O)C(C)C)C(=O)N[C@@H](C(C)C)C(=O)N[C@@H](CC(C)C)C(=O)NCC(=O)N[C@@H]([C@@H](C)O)C(=O)N1)C(C)C)C(=O)NCC(=O)N1CCC[C@H]1C(=O)N[C@@H](C)C(=O)NCC(=O)N[C@@H](CCCNC(=N)N)C(=O)N[C@@H](CCC(N)=O)C(=O)N[C@@H](CC(=O)O)C(=O)N[C@@H](CO)C(=O)N[C@@H](C)C(=O)N1CCC[C@H]1C(=O)N[C@H](C(=O)N[C@@H](CC(=O)O)C(=O)N1CCC[C@H]1C(=O)N[C@@H](CO)C(=O)N[C@@H](CO)C(=O)N1CCC[C@H]1C(=O)N[C@@H](Cc1c[nH]cn1)C(=O)N[C@@H](CO)C(=O)N[C@@H](Cc1ccc(O)cc1)C(N)=O)C(C)C [SEQ ID NO: 1]
rank order of potency, displacement of bound amylin (amylin receptors): amylin >CGRP>AFP-6 >>adrenomedullin>calcitonin | rank order, displacement of CGRP (CGRP receptors): CGRP >adrenomedullin >AFP-6 >amylin>>calcitonin | EC50 (calcitonin receptor [1]; average of three experiments, read-out: Average EC50): 9.63 nM | EC50 (calcitonin receptor [1]; read-out: Experiment 1 EC50): 11.3 nM | EC50 (calcitonin receptor [1]; read-out: Experiment 2 EC50): 10.6 nM | EC50 (calcitonin receptor [1]; read-out: Experiment 3 EC50): 7 nM | rank order of potency in CHO cells (calcitonin receptor [1]; cAMP, FIG. 9): AFP-6>adrenomedullin=CGRP alpha | rank order of potency, CHO cell experiments (calcitonin receptor [1]; cAMP, panel of related peptides): calcitonin >AFP-6>amylin >hCGRP alpha>adrenomedullin | ED50, decrease of plasma ionized calcium [2]: 0.025 mg/kg | profile over all three cardiovascular parameters (rats): profile more amylin-like than adrenomedullin like | body weight gain compared to Vehicle (Sprague-Dawley rats; Day 7): significantly less body weight gain than Vehicle | percent body weight loss (vehicle-corrected) (Sprague-Dawley rats; Day 7): 3.2% | food intake compared to Vehicle (Sprague-Dawley rats; after 2 days of treatment): significantly reduced food intake | binding at the adrenomedullin receptor (adrenomedullin receptor [3]): 1 to 5 nM | rank order of potency, T47D cells (calcitonin receptor [4]): calcitonin>amylin >AFP-6=hCGRP alpha>adrenomedullin | increase of cAMP levels (adrenomedullin receptor [5]; HUVECs, 1 μM and 10 nM): active in increasing cAMP levels | rank order of potency in HUVECs (adrenomedullin receptor [5]; cAMP, FIG. 9): adrenomedullin >AFP-6>>CGRP alpha
